From a melting point compilation (Tetko et al.; mined from patent text by program, amines drawn as free bases though some values may be those of a salt)
Residues, ends and D or L forms follow the SMILES beside them. *: point of attachment. Cbz = O=C(OCc1ccccc1)*; Boc = CC(C)(C)OC(=O)*

COc1cc(CCCC2SC(=O)NC2=O)ccc1OCc1coc(/C=C/c2ccccc2)n1 (centres undefined) showed a melting point of 154 to 155 °C.
In the case of O=C(CCCCCCCCC(=O)Oc1ccc(C(=O)OCc2ccccc2)cc1)Oc1ccc(C(=O)OCc2ccccc2)cc1, the melting point is reported as 62.5 to 63 °C.
With COCCOc1nc2cc(-c3ccc(OC)cc3)nnc2c2ccccc12 the melting point was 148 to 150 °C.
CCCCCCCCCCCNC(=O)N(CC)CC gave a melting point of 33 to 35 °C.
With O=C(O)Cc1c(-c2ccccc2)nn(-c2cccc(C(F)(F)F)c2)c1-c1ccccc1 the melting point was 166 to 167 °C.
Work on Cc1ccc(C(=O)NC/C=C/c2ccccc2)cc1 yielded a melting point of 134 °C.
CC(C)CC(NS(=O)(=O)c1cccc2ccccc12)C(=O)NC(C(C)C)C(O)c1c(-c2ccccc2)c1=O (centres undefined) gave a melting point of 109 to 115 °C.
O=C(Cn1c(=O)c(=O)[nH]c2cc([N+](=O)[O-])c(-n3cccc3)cc21)NCc1ccccc1 gave a melting point of over 300 °C.
With Nc1ncc(S(=O)c2ccncc2)s1 (centres undefined) the melting point was 193 to 195 °C.
For Cc1ccc(S(=O)(=O)c2ccc3c(c2)c(CCN(C)C(=O)OC(C)(C)C)c(C)n3C)cc1, the melting point was 129 to 133 °C.
For CCCCN(CCCC)CCCCOc1ccc(S(=O)(=O)c2c(C(C)C)cn3ccccc23)cc1, the melting point was 96 °C.
Work on COc1cc(-c2ncnc(Cl)c2Cl)c(F)cc1Cl yielded a melting point of 116 to 117 °C.
Compound CCCCn1ccc(-c2ccc3c(c2)OCCN3[C@H]2CC[C@H](O)CC2)c(Cl)c1=O has a melting point of 178 °C.
With COc1cc(OC(C)(C)C(=O)O)c(C=O)cc1-c1cccs1 the melting point was 187 to 188 °C.
For CCSC[C@@H]1[C@@H](c2ccc(Cl)c(Cl)c2)C[C@@H]2CC[C@H]1N2C, the melting point was 69 to 71 °C.
For CC(=O)n1nc(C)c(Oc2cc(F)cc(C#N)c2)c1C, the melting point was 109 to 111 °C.
With Nc1cccc(NCCCN2CCOCC2)c1 the melting point was 61 to 65 °C.
For CS(=O)(=O)c1ccc(-c2sc(COc3cccc(Cl)c3)nc2-c2ccccc2F)cc1, the melting point was 152 to 153 °C.
Cc1ncnn1-c1ccc(C#N)c(F)c1 gave a melting point of 89 to 90 °C.
Cc1cc(C)n(C)c(=O)c1C#N gave a melting point of 202 to 205 °C.
CC1(C)CCc2c(N3CCOCC3)nc3sc4c(NCCN5CCOCC5)ncnc4c3c21 showed a melting point of 100 to 101 °C.
In the case of O=[N+]([O-])c1ccc(Sc2nccn2-c2ccccc2)cc1, the melting point is reported as 123 to 125 °C.
Nc1ccc(CCc2cscn2)cc1 gave a melting point of 69 to 70 °C.
Work on COc1cc(OC)cc(C2CC=CCC2[N+](=O)[O-])c1 (centres undefined) yielded a melting point of 73 to 75 °C.
With CSc1nc(N)c(C#N)nc1C#N the melting point was 250 to 252 °C.
For Cc1ccc(S(=O)(=O)OCCCC2(C)NC(=O)NC2=O)cc1 (centres undefined), the melting point was 126 to 127 °C.
COC(=O)NNC(=O)CCC1CCCCC1 gave a melting point of 113 °C.
With COc1c(Cl)c(-c2nnc(C)s2)cc2oc(=O)c(C)c(C)c12 the melting point was 209 to 210 °C.
O=C(O)Cn1c(=O)c(=O)[nH]c2cc(C(F)(F)F)c(-n3ccc(CNCc4ccccc4)c3)cc21 gave a melting point of over 300 °C.
Work on COc1cccc(CNC(=O)c2nc3cccc(OCc4ccc(-c5nnn[nH]5)cc4)c3c(=O)[nH]2)c1 yielded a melting point of 227 to 229 °C.
COc1ccc2[nH]c3c(c2c1)C[C@@]1(C)C(=O)N(CCN2CCOCC2)C(=O)N1[C@@H]3c1cccc(O)c1 (racemic) showed a melting point of 260 to 263 °C.
C=CCn1c2c(c3cc(OCCN(C)C)ccc31)C(=O)c1cc(OC)c(OC)cc1-2 gave a melting point of 138 °C.
CCN(CC)CCCNc1ncc2cc(-c3c(Cl)cccc3Cl)c(=N)n(C)c2n1 showed a melting point of 154 to 156 °C.
Work on COC(=O)CNc1cc(CS(=O)(=O)C=Cc2c(OC)cc(OC)cc2OC)ccc1OC yielded a melting point of 182 to 185 °C.
Work on COC(=O)c1ccc(Cl)c(-n2nnn(C)c2=O)c1Cl yielded a melting point of 135 to 137 °C.
For C=CCc1cc(C=CC(=O)O)ccc1O, the melting point was 132 to 133 °C.
Compound Cc1oc(C(N)=O)c(C)c1-c1nc2ccc(Oc3ccccc3)cc2[nH]1 has a melting point of 248 to 251 °C.
CCCCCCCCCCCCCCCCCCS(=O)(=O)Nc1ccc(O)cc1 showed a melting point of 142 °C.
Work on Cn1ncnc1COc1nc2c(-c3cc(F)ccc3F)nncn2c1-c1ccccc1 yielded a melting point of 200 °C.
For Nc1c(-c2ccccc2)nn2ccccc12, the melting point was 155 to 157 °C.
In the case of O=C(O)/C(=N\OCF)c1nsc(NC(c2ccccc2)(c2ccccc2)c2ccccc2)n1, the melting point is reported as 144 to 146 °C.
Cn1c(Cl)cnc1C(OC(=O)OC(C)(C)C)c1cc(F)ccc1F (centres undefined) showed a melting point of 125 to 126 °C.
Compound CCOC(=O)CC(=O)c1cc2cc(F)c(Cl)cc2nc1Cl has a melting point of 112 to 114 °C.
For Cc1ccc(-c2nc(O)c(-c3ccccc3)s2)cc1, the melting point was 252 to 255 °C.
Compound CCn1c(=O)c2c(C)onc2n(C)c1=O has a melting point of 103 to 104 °C.
For O=C(O)Cc1ccc(-c2ccc(F)cc2F)c(Cl)c1, the melting point was 114 to 116 °C.
Work on CC(C)(C)OC(=O)N1CCC(c2n[nH]c(-c3ccccn3)n2)CC1 yielded a melting point of 220 °C.
With CC(C)n1cnc2c(Nc3ccc(F)cc3)nc(Cl)nc21 the melting point was 154 °C.
For CN1CCN(C2=CCCc3ccc(OCc4ccc(Cl)cc4)cc32)CC1, the melting point was 115 to 116 °C.
For CC(C)(C)OC(=O)NC(CCCCNC(=O)OCc1ccccc1)C(=O)N1CCCC1C(=O)NC(CCCNC(=N)N)C(=O)O (stereo not drawn) (Boc-Lys(Cbz)-Pro-Arg-OH; configuration not given here), the melting point was 90 °C.
O=C(N[C@@H]1CCN(CCNc2ncccn2)C[C@H]1O)c1cccc(C(F)(F)F)c1 (relative stereo) showed a melting point of 148 °C.
With COC(=O)c1ccc(C=C(Br)Br)c(N)c1 the melting point was 97 to 99 °C.
In the case of CCCn1cc(CN(C(=O)C2CCCc3c(O)cccc32)c2ccc(C(C)C)cc2)cn1 (centres undefined), the melting point is reported as 161 °C.
CN(c1cccc2cc(C3=NCC(CCO)S3)[nH]c12)S(=O)(=O)c1ccccc1C(F)(F)F (centres undefined) gave a melting point of 153 to 154 °C.
With COc1c(N2CCCC(CN)C2)c(F)cc2c(=O)c(C(=O)O)cn(C3CC3)c12 (centres undefined) the melting point was 192 to 193 °C.
Work on N#Cc1ccc2cc(CCCCc3cc4ccc(C#N)cc4o3)oc2c1 yielded a melting point of 215 to 217 °C.
CCOC(=O)C(C#N)=CNc1ccc(-c2ccccc2)cn1 gave a melting point of 119 to 126 °C.
With c1ccc2c(c1)ncn2CN1CCN(Cn2cnc3ccccc32)CC1 the melting point was 250 to 253 °C.
For COc1cc(-c2nc3ccc(OCCCN(C)C)cc3n2Cc2ccccc2C(F)(F)F)cc(OC)c1OC, the melting point was 142 °C.
Oc1c(CN2CCCC2)cc(Nc2ccc3ccccc3n2)cc1CN1CCCC1 showed a melting point of 64 to 66 °C.
CCCn1nc(C#N)cc1CC(C)(C)NC(=O)OC(C)(C)C showed a melting point of 115 to 116 °C.
In the case of COC(=O)C1CCC(C(=O)Nc2sc3c(c2C(=O)NCc2ccc4c(c2)OCO4)CCCC3)CC1 (centres undefined), the melting point is reported as 173 °C.
Compound COc1ccc(Oc2c(N)cc(C(=O)O)cc2SCc2ccccc2)cc1 has a melting point of 158 to 161 °C.
CCOC(C)=C(C#N)C(=O)Nc1ccccc1F gave a melting point of 158 to 160 °C.
In the case of OCc1c(CO)c2sc3ccccc3n2c1-c1ccc(Cl)cc1, the melting point is reported as 151 to 152 °C.
Work on CC(C)(CO)NS(=O)(=O)c1cccc(NC(=O)c2cnn3c(C(F)(F)F)cc(-c4ccc(Cl)c(Cl)c4)nc23)c1 yielded a melting point of 269 °C.
With CC1Cc2ccccc2N1N (centres undefined) the melting point was 37 to 38 °C.
CC1Cn2c(nc3ccccc32)NC1=O (centres undefined) showed a melting point of over 260 °C.
COc1cccc2c1C=C(C#N)CC2 showed a melting point of 66 to 68 °C.
O=C(O)C1CCC(=O)N1c1cccc(O)c1 (centres undefined) showed a melting point of 183 to 185 °C.
Nc1cc(C(c2ccc([N+](=O)[O-])c(N)c2)(C(F)(F)F)C(F)(F)F)ccc1[N+](=O)[O-] showed a melting point of 257 to 259 °C.
Compound CCOc1n[nH]c(=O)n1C1CC1 has a melting point of 144 to 145 °C.
For CC#COc1cc(-n2c(=O)n3n(c2=S)COCC3)c(Cl)cc1Cl, the melting point was 188 to 190 °C.
For N#CC(CCN1CCC(c2ccccc2)CC1)(c1ccccc1)c1ccccc1, the melting point was 88 to 89.5 °C.
Work on CC(=O)Oc1cccc(C2(N(C)C)CCC(=O)CC2)c1 yielded a melting point of 51 to 53 °C.
CCNc1nc2cc(Cc3c(C)nc4cc(C)ccn34)ccc2o1 showed a melting point of 209 to 211 °C.
CC(C)(C)c1cc(SCN2CCN(CSc3cc(C(C)(C)C)c(O)c(C(C)(C)C)c3)C2=O)cc(C(C)(C)C)c1O showed a melting point of 173 to 176 °C.
With CC(C)C(NS(=O)(=O)c1ccc(-c2cccc(CNC(=O)c3nc4ccccc4c(=O)[nH]3)c2)cc1)C(=O)O (centres undefined) the melting point was 141 to 143 °C.
For O=C(NC(Cc1ccccc1)C(=O)C(F)F)c1ccccc1 (centres undefined), the melting point was 136 °C.
For COc1ccc(S(=O)c2ccccc2)cc1N (centres undefined), the melting point was 113 to 115 °C.
O=C(Cl)N1CC(Oc2ccc(F)cc2)C1 showed a melting point of 44 to 52 °C.
O=C(O)[C@H](Cc1cccc(OCC(F)(F)F)c1)[C@@H](O)c1ccc(F)cc1 (racemic) showed a melting point of 142 to 143 °C.
Compound CCC1=C(O)C(C(C)=O)C(=O)OC1=O (centres undefined) has a melting point of 212 °C.
In the case of CS(=O)(=O)c1ccc(Oc2ccc(Cl)c(Cl)c2)nc1, the melting point is reported as 120 to 121 °C.
Work on COC(=O)c1cc(C(=O)c2ncc3ccc(N(C)C(=O)OC(C)(C)C)cn23)ccc1[N+](=O)[O-] yielded a melting point of 55 °C.
COc1ccc2cc([C@H](C)C(=O)OCCNC(=O)c3cccc(CO[N+](=O)[O-])c3)ccc2c1 showed a melting point of 92 to 94 °C.
With CSc1cc(Cl)cc(C(=O)O)c1 the melting point was 148 to 150 °C.
CN1C(=O)C2=C(c3ccccc3)N(C)C(=O)C2=C1c1ccccc1 gave a melting point of 236 to 238 °C.
O=c1c(CCCc2cccnn2)cc2cccnc2n1-c1cccc([N+](=O)[O-])c1 showed a melting point of 234 to 235 °C.
Compound COC1OCC[C@@H]1N(C(=O)CNC(=O)COc1ccc2c(c1)Nc1ccccc1S2)[C@@H](Cc1ccccc1)C(N)=O (some centres undefined) has a melting point of 203 to 204 °C.
Compound CC(C)(C)c1cc2c(cc1Br)C=C(C(=O)O)C(C(F)(F)F)O2 (centres undefined) has a melting point of 199 to 200 °C.
CS(=O)(=O)c1ccc(-n2nc(C(F)(F)F)cc2-c2ccc(-c3ncco3)cc2)cc1F showed a melting point of 140 to 142 °C.
Compound Oc1ccc(CC2CC2(Cl)Cl)cc1 (centres undefined) has a melting point of 57 to 62 °C.
Work on COc1ccc(C(=O)Nc2nc3ccc(N(C)C)cc3c(NCc3cccs3)c2C#N)cc1 yielded a melting point of 163 °C.
For COC(=O)c1ccc(NS(=O)(=O)c2ccc(Oc3cccc(Cl)c3C#N)cc2)cn1, the melting point was 153 to 155 °C.
Cc1cc(C(=O)O)c2[nH]c3c(c2c1)CCCC3 gave a melting point of 225 °C.
Compound Nc1nc(O)c2ncn(C=C3CC3CO)c2n1 (centres undefined) has a melting point of 218 to 221 °C.
Work on ClCc1ncn2c1CN=C(c1ccccc1Cl)c1cc(Cl)ccc1-2 yielded a melting point of 165 °C.
O=C/C=C/c1cc2cc(Cl)ccc2[nH]1 showed a melting point of 207 to 209 °C.
